These results are taken from patent US20070207537A1, “Bioreactor” (priority 2004, published 2007).

This data set relates to Human mesnchymal stem cells. Briefly: Alamar Blue toxicity assay in perfused microbioreactor culture. Format: cell-based. Conditions: 250 ng/ml, read at day 3 and day 7, FIG. 3. As to the method: Human mesnchymal stem cells were suspended in the α Modified Eagle's Medium (MEM) at the cell density of 10^4/ml. A 50 μl of cell suspension was introduced to each of the microbioreactors and kept at 37° C. After 4 h, the cell was seen to attach to the surface of the microbioreactor under microscope. During culture, αMEM supplemented with 15% FBS, 2% antibiotics/antimycotics and with different concentrations of tested drugs was used. The chemicals used were Trimethoprim and Pyrimethamine, which are known to be toxic to cells. The concentrations of the drug were 100 ng/ml and 250 ng/ml. The flow rate was 0.025 ml/h. Alamar Blue was used to do toxicity assay, which simply indicates the cell metabolity.
The samples from 3 days of culture with drug, 7 days of culture with drug and 3 days of culture without drug and further 4 days culture with drug were incubated with culture medium supplemented with Alamar Blue at day 3 and day 7, respectively for 4 h. Then 100 μl of culture medium was transferred to 96-well plate to read using microplate reader at the excitation wavelength of 530 nm and emission wavelength of 590 nm. Toxicity was shown as the ratio of reading from untreated with drug and from treated with drug, see FIG. 3. The toxicity was increased with culture time with drug. No significant different in toxicity between the two concentrations of drug in the test.
A general note: Resazurin is reduced to fluorescent resorufin, in cell work by metabolically active cells.

Regarding `CCc1nc(N)nc(N)c1-c1ccc(Cl)cc1` [Pyrimethamine], the “Toxicity (ratio of reading from untreated with drug and from treated with drug)” value is reported as “dramatic increase in toxicity”.
